Experimental data: US20220079956A1, “MAINTENANCE OF AGING MUSCLE TISSUE” (BIOPHYTIS SA, priority 2011, published 2022)
Several values for one entry are separate records, joined by “and”; a condition that tells them apart may be missing. Equal values may be shown once. Read-outs that look alike come from different tables or passages of the source. One block for each compound: values may come before it.

Tests used:
[1] = Single ascending dose study, clinical Phase 1: plasma levels; type: in vivo; conditions: human; for Cmax: plasma, SAD, read-out: Maximal plasma concentration (Cmax)
Experimental: A single ascending BIO101 dose study during clinical Phase 1 trial is performed. […] This low concentration is clearly below optimal conditions (with only 26 and 32% of efficacy for two selected markers of differentiation, see FIGS. 10A-B) and is not responsible for significant efficacy in terms of anabolism (FIGS. 11A-B).
FIG. 12A-B are graphs of plasma levels of BIO101 in human following 100, 350 and 700 mg administration.

[2] = system: C2C12 myoblast; test: C2C12 myoblast differentiation (fusion index, number of nuclei per myotube); type: cell-based, mouse; conditions: for EC50: C2C12 myoblasts, 6-day differentiation in the presence of the drug, read-out: EC50 for number of nuclei per myotube increase
Experimental: FIGS. 10A-B are graphs of BIO101 efficacy 50% value (EC50) determination on myoblasts differentiation. The fusion index and number of nuclei per myotubes were measured after 6-day differentiation in the presence of the drug.
The fusion index and the number of nuclei per myotube are recognized parameters of myoblast differentiation. The fusion index was calculated as the ratio of nuclei in fused MHC-positive cells 2 nuclei per cells) to the total nuclei number. […] EC50 values (efficacious doses 50%) for each parameter were calculated by the integration of effect vs [BIO101] curves.

[3] = system: sarcopenic patients; test: Clinical trial in sarcopenic patients: gait speed in 400 meters walking test; type: in vivo, human; conditions: 6 months; for improvement in gait speed in 400 meters walking test compared to placebo: 700 mg daily
From the text: After 6 months of treatment, an improvement of 0.09 m/s in the full analyze set (FAS) population and 0.10 m/s in the per protocol (PP) population (treatment effect significant, p<0.01) were observed. This effect of Sarconeos (BIO101) corresponds to the minimal clinically important difference (MCID) in sarcopenia (0.1 m/s), associated with a reduction in mobility and disability in elderly (Perera et al. 2006).

[4] = Multiple ascending dose study, clinical Phase 1: adverse events; type: in vivo; conditions: human, daily administrations of 900 mg, MAD
Experimental: A multiple ascending BIO101 dose study was performed during clinical Phase 1 trial. […] For this reason, in clinical Phase 2, the daily dose of 900 mg was not tested.

[5] = system: C2C12 cells; test: Protein synthesis in differentiated C2C12 myotubes by [3H]-leucine incorporation; type: cell-based, mouse; conditions: 0.1 μM, vs untreated control
From the text: FIGS. 11A-B are graph of effects of 20-hydroxyecdysone (20E) on protein synthesis and myostatin gene expression in C2C12 cells. […] Results are shown as means±SEM, ***p<0.001, **p<0.01, *p<0.05 vs untreated control (Kruskal-Wallis followed by a Dunn's test).

[6] = system: myostatin gene expression; test: Myostatin gene expression in C2C12 myotubes by qRT-PCR; type: cell-based, mouse; conditions: 6 hours, vs untreated control
Experimental: In FIG. 11B, C2C12 mouse myoblasts were differentiated for 6 days into myotubes. They were then treated for 6 hours with concentrations of 20E ranging from 0.001 to 10 μM. Myostatin gene expression was detected by qRT-PCR. Results are shown as means±SEM with ***p<0.001, **p<0.01, *p<0.05 vs untreated control (one-way ANOVA with Dunnett's test compared to untreated control).

[7] = system: UCP2 gene transcripts; test: Quantity of UCP2 gene transcripts (mRNA) in muscle of high-fat diet mice; type: in vivo, male C57BL/6J mice; conditions: high-fat diet 3 weeks, 5 mg of 20E per kg body weight per day; vs high-fat diet alone
From the text: (§1) The effect of phytoecdysones is observed on mice subjected to a high-fat diet during 3 weeks.
(§2) The HF high-fat diet involved the intake of large amounts of fat in the form of lard. The mice selected for the study were male C57BL/6J mice, 6 weeks old at the start of the experiment.
(§3) The mice in the study were grouped according to the dietary regimes and treatments to which they were subjected: normal or control diet (LF), high-fat diet (HF), high-fat diet supplemented with quinoa extract (HFQ) and high-fat diet supplemented with pure 20-hydroxyecdysone (HF20E).
(§4) The mice were subjected to the dietary regimes detailed in Table 1 below for three weeks and the mice fed a high-fat diet were treated in parallel with pure 20E or extract A (2% 20E). The concentration of 20E was adjusted to equal 40 mg per kg of food.
(§5) In light of the average food intake of the mice, the dose of 20E administered corresponded in the two treatments to 5 mg of 20E per kg of body weight per day. The food was supplied in excess every day for both dietary regimes and all three treatments. […]
(§6) FIG. 4 illustrates a graph plotting quantities of gene transcripts (mRNA), as measured in the muscle, against diet and associated treatment. The quantities have been normalized with respect to the quantities measured in the muscles of mice fed the control diet.

[8] = system: CPT-1 intracellular fatty acid transporter gene transcripts; test: Quantity of CPT-1 gene transcripts (mRNA) in muscle of high-fat diet mice; type: in vivo, male C57BL/6J mice; conditions: high-fat diet 3 weeks, 5 mg of 20E per kg body weight per day
From the text: as §1, §2, §3, §4, §5, §6

[9] = system: UCP3 gene transcripts; test: Quantity of UCP3 gene transcripts (mRNA) in muscle of high-fat diet mice; type: in vivo, male C57BL/6J mice; conditions: high-fat diet 3 weeks, 5 mg of 20E per kg body weight per day; vs high-fat diet alone
From the text: as §1, §2, §3, §4, §5, §6

[10] = system: mice subjected to a high-fat diet; test: Mice subjected to a high-fat diet for 3 weeks: carcass weight, quadriceps composition, energy balance; type: in vivo, male C57BL/6J mice; conditions: high-fat diet 3 weeks
Experimental: as §1, §2
Mice not subjected to a high fat diet, forming a normal diet control group, were tested in parallel.
as §3, §4
In light of the average food intake of the mice, the dose of 20E administered corresponded in the two treatments to 5 mg of 20E per kg of body weight per day. The food was supplied in excess every day for both dietary regimes and all three treatments. On average, 40 g of food was provided per cage per day or 6.5 g of food per mouse per day.
Table 1 below sets out in greater detail the composition of the diets to which mice were subjected:
Following sacrifice, aliquots of muscle (quadriceps) were collected for analysis. FIG. 2 illustrates a graph plotting muscle triglyceride content against diet and associated treatment.

plasma exposure (maximal concentration from plot vs administered dose) ([1]; 175 mg administration (5 mg/kg for a 35 kg patient), read from FIG. 12B): 0.4 µM
Cmax ([1]; 100 mg dose): 260 nM and 126 ng/mL
Cmax ([1]; 350 mg dose): 630 nM and 304 ng/mL
Cmax ([1]; 700 mg dose): 780 nM and 374 ng/mL
EC50 [2]: 550 nM
EC50 ([2]; Mus musculus, C2C12, 144 h): 556 nM
SMILES: CC(C)(O)CC[C@@H](O)[C@](C)(O)[C@H]1CC[C@@]2(O)C3=CC(=O)[C@@H]4C[C@@H](O)[C@@H](O)C[C@]4(C)[C@H]3CC[C@]12C [BIO101]
% of efficacy on differentiation marker (first marker, fusion index) ([2]; at 0.26 μM, the plasma peak of a 100 mg dose, read from FIG. 10A): 26%
% of efficacy on differentiation marker (second marker, number of nuclei per myotube) ([2]; at 0.26 μM, the plasma peak of a 100 mg dose, read from FIG. 10B): 32%
gait speed in 400 meters walking test compared to placebo ([3]; 350 mg daily, notably in a frail sub population of the FAS): improvement
improvement in gait speed in 400 meters walking test compared to placebo ([3]; full analyze set (FAS) population): 0.09 m/s
improvement in gait speed in 400 meters walking test compared to placebo ([3]; per protocol (PP) population, p<0.01): 0.10 m/s
treatment-related TEAEs (treatment-emergent adverse events) [4]: high number of subjects with treatment-related TEAEs
effect on protein synthesis [5]: not yet significant
inhibition of myostatin gene expression ([6]; 0.1 μM): not yet significant
inhibition of myostatin gene expression ([6]; concentration equal or higher than 0.5 μM): significant

SMILES: CC(C)(O)CC[C@@H](O)[C@](C)(O)[C@H]1CC[C@@]2(O)C3=CC(=O)[C@@H]4C[C@@H](O)[C@@H](O)C[C@]4(C)[C@H]3CC[C@]12C [20E, 20-hydroxyecdysone]
quantity of UCP2 gene transcripts in muscle [7]: tendency to increased quantities
quantity of CPT-1 gene transcripts in muscle [8]: tends to restore transcript levels to those seen for the control diet
quantity of UCP3 gene transcripts in muscle [9]: increase
energy expenditure higher than high-fat diet alone ([10]; 5 mg of 20E per kg body weight per day): 9%
food intake (energy, kcal) ([10]; 5 mg of 20E per kg body weight per day, compared with animals fed the standard diet): same amount of energy
higher muscle protein content (quadriceps) ([10]; 5 mg of 20E per kg body weight per day, trend, compared to HF treatment alone): 5%
lower muscle triglyceride content (quadriceps) ([10]; 5 mg of 20E per kg body weight per day, trend, vs high-fat diet alone): 26%
lean body mass (carcass defatted) / carcass weight ([10]; 5 mg of 20E per kg of body weight per day in food, vs high-fat diet alone): increase that has allowed the mice to return virtually to the same level as the normal diet
